Data on two molecules can be found in US5491155A, “Substituted thiadiazoles, compositions containing them and their use as antimicrobial and marine antifouling agents” (The Dow Chemical Company, priority 1994, dated 1996).

One experiment deals with Saccharomyces cerevisiae. The experiment can be described thus: MIC in malt yeast agar, Saccharomyces cerevisiae. The class given is cell-based, Saccharomyces cerevisiae (ATCC 4105). As to conditions: Sc, malt yeast agar, 30° C., 48 hours for yeast, read-out: Minimum Inhibitory Concentration (MIC). As for the experimental part: (§1) The minimum inhibitory concentration (MIC) for the compounds listed in Table I is determined for bacteria, using nutrient agar, and 7 yeast and fungi, using malt yeast agar. A one percent solution of the test compound is prepared in a mixture of acetone and water.
(§2) Malt yeast agar is prepared by adding 3 g yeast extract and 45 g malt agar per liter of deionized water. The specific agar is dispensed in 30 mL aliquots into 25×200 mm test tubes, capped and autoclaved for 15 minutes at 115° C.
(§3) The test tubes containing the agar are cooled in a water bath until the temperature of the agar is 48° C. Then, an appropriate amount of the one percent solution of the test compound is added (except in the controls where no compound is added) to the respective test tubes so that the final concentrations are 500, 250, 100, 50, 25, 10, 2.5, 1.0 and zero parts per million of the test compound in the agar, thus having a known concentration of test compound dispersed therein. The contents of the test tubes are then transferred to respective petri plates. After drying for 24 hours, the petri plates containing nutrient agar are inoculated with bacteria and those containing malt yeast agar are inoculated with yeast and fungi.
(§4) The inoculation with the yeast and fungi is accomplished as follows. Cultures of yeast and fungi are incubated for seven days on malt yeast agar at 30° C. These cultures are used to prepare suspensions by the following procedure. A suspension of each organism is prepared by adding 10 mL of sterile saline and 10 microliters of octylphenoxy polyethoxy ethanol to the agar slant of yeast or fungi. The sterile saline/octylphenoxy polyethoxy ethanol solution is then agitated with a sterile swab to suspend the microorganism grown on the slant. Each resulting suspension is diluted into sterile saline (1 part suspension: 9 parts sterile saline). Aliquots of these dilutions are placed in individual wells of Steer's Replicator and petri plates inoculated as previously described. The petri plates are incubated at 30° C. and read after 48 hours for yeast and 72 hours for fungi.
(§5) Table II lists the bacteria, yeast and fungi used in the MIC test described above along with their respective American Type Culture Collection (ATCC) identification numbers.
(§6) In Tables III and IV, the MIC values of the compounds described in Table I as compared to the MIC of a standard commercial preservative (with 1-(3-chloroalkyl)-3,5,7-triaza-1-azoniaadamantane chloride as the active agent and referred to in Tables III and IV as "STANDARD I") are set forth for the bacteria organisms and yeast/fungi organisms which are listed in Table II.

The subject of another experiment is Staphylococcus aureus. The experiment can be described thus: MIC in nutrient agar, Staphylococcus aureus. Format: cell-based, Staphylococcus aureus (ATCC 6538). Conditions: Sa, 48 hours, read-out: Minimum Inhibitory Concentration (MIC). The protocol:
as §1
(§7) Nutrient agar is prepared at pH 6.8, representing a neutral medium, and at pH 8.2, representing an alkaline medium. The nutrient agars are prepared by adding 23 g of nutrient agar to one-liter of deionized water. In addition, the alkaline medium is prepared by adjusting a 0.04M solution of N-(tris-(hydroxymethyl)methyl)glycine buffered deionized water with concentrated sodium hydroxide to a pH of 8.5.
as §3
(§8) The inoculation with bacteria is accomplished by using the following procedure. Twenty-four hour-cultures of each of the bacteria are prepared by incubating the respective bacteria in tubes containing nutrient broth for 24 hours at 30° C. in a shaker. Dilutions of each of the 24 hour-cultures are made so that nine separate suspensions (one for each of the nine test bacteria) are made, each containing 10^8 colony forming units (CFU) per mL of suspension of a particular bacteria. Aliquots of 0.3 mL of each of the bacterial suspensions are used to fill the individual wells of Steer's Replicator. For each microbial suspension, 0.3 mL was used to fill three wells (i.e., three wells of 0.3 mL each) so that for the nine different bacteria, 27 wells are filled. The Steer's Replicator is then used to inoculate both the neutral and alkaline pH nutrient agar petri plates.
(§9) The inoculated petri plates are incubated at 30° C. for 48 hours and then read to determine if the test compound which is incorporated into the agar prevented growth of the respective bacteria.
as §5, §6

The next experiment deals with Candida albicans. The experiment can be described thus: MIC in malt yeast agar, Candida albicans. The class given is cell-based, Candida albicans (ATCC 10231). As to conditions: Ca; malt yeast agar; 30° C.; 48 hours for yeast; read-out: Minimum Inhibitory Concentration (MIC). As for the experimental part: as §1, §2, §3, §4, §5, §6
Experiment [1] relates to Pseudomonas aeruginosa (PRD-10). The experiment can be described thus: MIC in nutrient agar, Pseudomonas aeruginosa (PRD-10). The class given is cell-based, Pseudomonas aeruginosa (ATCC 15442). Conditions: PRD, 48 hours, read-out: Minimum Inhibitory Concentration (MIC). The protocol: as §1, §7, §3, §8, §9, §5, §6
For another experiment, the system named is Enterobacter aerogenes. The experiment can be described thus: MIC in nutrient agar, Enterobacter aerogenes. Conditions: Klebsiella aerogenes, Ea, 30° C., 48 hours, read-out: Minimum Inhibitory Concentration (MIC). The class given is cell-based, Enterobacter aerogenes (ATCC 13048). As for the experimental part:
as §1, §7, §3, §8, §9, §5, §6

The test system of the next experiment is marine organisms. The experiment can be described thus: Marine antifouling test on coated panels. As to conditions: scale 10 (completely free of marine organism growth) to 0 (completely covered). As for the experimental part:
Test panels are prepared from clear, rigid polyvinyl chloride film that is 0.381×10^-3 m thick and has one textured surface. The test panels are 0.1524 m by 0.1524 m squares that have 0.00635 m holes punched at corners on 0.127 m centers. A 0.102 square template, with a 0.067 m diameter hole at the center, is attached to the center of the textured surface of the test panels.
A candidate marine antifoulant compound (1.0 g) is stirred into a resinous latex binder (9.0 g). A portion of the compound/binder mixture (1.5 g, is added to the center of the test panel and uniformly spread over the circular area inside the template.
Water is added dropwise as needed to properly spread the compound/binder mixture. The template prevents the compound/binder mixture from spreading beyond the uncovered area. […] The template is then removed. The test panel is then allowed to dry for 8 to 12 hours at room temperature.
Two test panels are prepared for each candidate marine antifoulant compound. Two control test panels are also prepared by only treating with the resinous latex binder. One test panel of each candidate marine […] compound is attached over a white background to the topside of an exposure support apparatus. The second test panel is attached over a black background to the underside of the exposure support apparatus. The exposure support apparatus is placed horizontally 0.0254 m under a marine surface with the white background topside facing up.
After being removed from the exposure support apparatus, each test panel is inspected and rated for marine organism growth on both the treated and untreated areas of the test panel. The marine organisms present on the treated and untreated areas are noted. The presence of algae spores and bacterial slime are noted but not included in rating each test panel. The test panels are rated on a scale from 10 (representing completely free of marine organism growth) to 0 (representing completely covered with marine organism growth).
In addition, test panels were prepared using tributyl tin oxide, a known marine antifouling compound.

The test system of a further experiment is Aspergillus niger. The experiment can be described thus: MIC in malt yeast agar, Aspergillus niger. Conditions: An; malt yeast agar; 30° C.; 72 hours for fungi; read-out: Minimum Inhibitory Concentration (MIC). Format: cell-based, Aspergillus niger (ATCC 16404). As for the experimental part: as §1, §2, §3, §4, §5, §6

The structures appear in SMILES notation. Values after ≈ are worked out from the molar mass of the structure shown. Read-outs that look alike come from different tables or passages of the source.

In the case of `N#CSc1nsnc1SC#N` [Example 2, Bis(thiocyanato)-1,2,5-thiadiazole], the MIC in the experiment with Saccharomyces cerevisiae was 5 µg/mL (≈ 25 µM); in the experiment on Staphylococcus aureus (pH 6.8, 30° C.), 25 µg/mL (≈ 125 µM); in the experiment with Staphylococcus aureus (pH 8.2, 30° C.), 100 µg/mL (≈ 499 µM); in the experiment on Candida albicans it was less than 1 µg/mL; in experiment [1] (pH 6.8, 30° C.), 25 µg/mL (≈ 125 µM); in experiment [1] (pH 8.2, 30° C.), 250 µg/mL (≈ 1250 µM). Further, the MIC was 25 µg/mL (≈ 125 µM) with Enterobacter aerogenes (pH 6.8), 100 µg/mL (≈ 499 µM) with Enterobacter aerogenes (pH 8.2) and less than 1 µg/mL in the experiment on Aspergillus niger. Further, the “Marine Antifouling Rating” value with marine organisms (10 Week Test, Bottom Panel) is given as 9; in the experiment on marine organisms (10 Week Test, Top Panel) it was 9; in the experiment with marine organisms (20 Week Test, Bottom Panel), 7; in the experiment on marine organisms (20 Week Test, Top Panel), 2.

With `N#CSCSc1nsnc1SCSC#N` [Example 4, Bis(thiomethylthiocyanato)-1,2,5-thiadiazole], the MIC in the experiment with Saccharomyces cerevisiae was less than 2.5 µg/mL; with Staphylococcus aureus (pH 6.8, 30° C.), less than 10 µg/mL; in the experiment on Staphylococcus aureus (pH 8.2, 30° C.), less than 10 µg/mL; in the experiment on Candida albicans it was less than 2.5 µg/mL; in experiment [1] (pH 6.8, 30° C.), 25 µg/mL (≈ 85.5 µM); in experiment [1] (pH 8.2, 30° C.) it was 25 µg/mL (≈ 85.5 µM). For the same molecule, the MIC with Enterobacter aerogenes (pH 6.8) was 25 µg/mL (≈ 85.5 µM); with Enterobacter aerogenes (pH 8.2) it was less than 10 µg/mL; in the experiment on Aspergillus niger, less than 2.5 µg/mL. Moreover, the “Marine Antifouling Rating” value is 9 in the experiment on marine organisms (10 Week Test, Bottom Panel); 9 in the experiment with marine organisms (10 Week Test, Top Panel); 5 with marine organisms (20 Week Test, Bottom Panel); 7 with marine organisms (20 Week Test, Top Panel).
